In publication PMC12085399, “Quantitative in vitro-to-in vivo extrapolation of human adrenergic and trace amine-associated receptor 1 potencies of pre-workout supplement ingredients using physiologically based kinetic modelling-based reverse dosimetry” (Archives of Toxicology, 2025):
“And” between values parts separate entries of the source, which are not always exact repeats. Identical values can stand only once. Like-named read-outs stand apart in the source and are kept apart here.

Columns and labels:
TAAR1 = experiment: PBK modelling-based reverse dosimetry of in vitro EC50 to ED50, TAAR1; parameters: species or system human; conditions: for dose needed to reach internal effect concentrations, times lower than the dose of higenamine: TAAR1, Fig. 6F; for TAAR1 ED50: predicted human oral ED50 from in vitro EC50 (Pinckaers et al. [2024]) and modelled Cmax plasma venous
Text: (§1) The in vitro effect concentrations (EC50), for activation of the α1A, α1B, α1D, α2A, α2B, β1 and β2 ADR activation and the activation of TAAR1, were obtained from our previous study (Pinckaers et al. [2024]).

ADRβ1 = experiment: PBK modelling-based reverse dosimetry of in vitro EC50 to ED50, ADRβ1; parameters: species or system human; conditions: for ADRβ1 ED50: predicted human oral ED50 from in vitro EC50 (Pinckaers et al. [2024]) and modelled Cmax plasma venous
ADRα2A = experiment: PBK modelling-based reverse dosimetry of in vitro EC50 to ED50, ADRα2A; conditions: predicted human oral ED50 from in vitro EC50 (Pinckaers et al. [2024]) and modelled Cmax plasma venous
Text: as §1

ADRα1D = experiment: PBK modelling-based reverse dosimetry of in vitro EC50 to ED50, ADRα1D; conditions: predicted human oral ED50 from in vitro EC50 (Pinckaers et al. [2024]) and modelled Cmax plasma venous
Text: as §1

ADRα1A = experiment: PBK modelling-based reverse dosimetry of in vitro EC50 to ED50, ADRα1A; conditions: predicted human oral ED50 from in vitro EC50 (Pinckaers et al. [2024]) and modelled Cmax plasma venous
Text: as §1

[1] = In vitro hepatic clearance by human liver S9 (compound depletion); type: in vitro ADME; conditions: for Predicted intrinsic hepatic metabolic clearance CLmet: CLint,u scaled to a whole liver, 121 mg HLS9/g liver; for Predicted intrinsic hepatic metabolic clearance CLmet / k el at 1 µM / microsomal CLint at 1 µM: human; for k el at 1 µM: pH 7.4; for metabolism in incubations without co-factor mix: HLS9 without co-factor mix
Method: In vitro intrinsic hepatic clearance (CLint) values of the phenethylamine analogues were determined in experiments with pooled human liver S9 (HLS9; Corning, Woburn, MA, USA and Gibco, USA), by measuring the rate of compound depletion. Stocks of 1 mM PEA compounds were prepared in DMSO and stocks of 10 mg/mL alamethicin were prepared in methanol. The final incubation mixtures consisted of 1 µM of PEA compound (0.1% DMSO) in 100 mM potassium phosphate buffer with 5 mM magnesium chloride (pH 7.4) supplemented with 0.025 mg/mL alamethicin (0.25% methanol) and 0.1–2 mg/mL HLS9. […] Incubation mixtures were first pre-incubated at 37 °C in a shaking incubator at 300 rpm for 5 min. After 5 min, the reaction was initiated by adding a co-factor mix in supplemented buffer with final concentrations of 3 mM nicotinamide adenine dinucleotide phosphate (NADPH; for oxidation, reduction and hydrolysis), 5 mM uridine diphosphate glucuronic acid (UDPGA; for glucuronidation), 0.2 mM adenosine 3’-phosphate 5’-phosphosulfate lithium salt hydrate (PAPS; for sulfation) and 0.2 mM S-(5’-Adenosyl)-L-methionine p-toluenesulfonate salt (SAM; for methylation). The final incubation volume was 100 µL and incubations were performed in 1.5 mL Safe-Lock Eppendorf tubes (Eppendorf) in a shaking incubator (300 rpm) at 37 °C (Eppendorf Thermomixer). Incubations were terminated by adding 100 µL ice-cold acetonitrile after, 0, 2.5, 5, 10, 20, 40 and 60 min. Then, samples were vortexed, put on ice and stored at -20 °C until the day of the LC–MS/MS analysis. Controls of incubation mixtures without HLS9 or mixtures without co-factors were also included. Two independent experiments, both in duplicate, were performed on different days. On the day of the LC–MS/MS analysis, samples were thawed and centrifuged at 15,000 rpm for 10 min. The supernatant was collected in glass insert vials for LC injection (BGB Analytik, Harderwijk, The Netherlands). Details on the methods of the LC–MS/MS analysis are described in Sect. "LC–MS/MS analysis". After determining the PEA (analogue) amount at the different time points, the CLint was calculated. The natural logarithm of compound concentrations was plotted against time and the slope of this curve represented the elimination rate constant k (in 1/min). The half-life (t1/2 in minutes) was calculated by: ln (2)/k (in 1/min). The volume of incubation (V) in µL/mg protein was determined by: 1000 / HLS9 concentration (in mg/mL). Finally, CLint could be calculated by: CLintμL/min/mg protein=VμL/mg protein∗ln2/t1/2min.
The fraction unbound in these in vitro liver clearance incubations was calculated with the method of (Hallifax and Houston [2006]) in which unspecific binding in HLS9 incubations was assumed to be the same as in liver microsomal incubations. The in vitro obtained HLS9 CLint values were corrected for protein binding in the HLS9 incubation and were scaled to a whole liver by using a scaling factor of 121 mg HLS9/g liver (Houston and Galetin [2008]).

ADRα1B = experiment: PBK modelling-based reverse dosimetry of in vitro EC50 to ED50, ADRα1B; conditions: predicted human oral ED50 from in vitro EC50 (Pinckaers et al. [2024]) and modelled Cmax plasma venous
Text: as §1

[2] = s9, pH 7.4, CLint app corrected for unspecific protein (HLS9) binding, read-out: In vitro CLint,u
[3] = s9, pH 7.4, human liver S9 with co-factor mix (NADPH, UDPGA, PAPS, SAM), 1 µM, read-out: In vitro CLint app
[4] = full reaction mix (HLS9 and co-factor mix), 1 µM, HLS9 concentration per compound (0.10-2 mg/mL), read-out: elimination rate constant k (converted)

SMILES	dose needed to reach internal effect concentrations, times lower than the dose of higenamine (TAAR1)	TAAR1 ED50 (TAAR1)	predicted equivalent oral dose, times lower than the dose of higenamine (ADRβ1; ADRβ1, dose needed to reach the internal effect concentration)	ADRα2A ED50 (ADRα2A)	ADRα1D ED50 (ADRα1D)	ADRα1A ED50 (ADRα1A)	Predicted intrinsic hepatic metabolic clearance CLmet [1]	k el at 1 µM [1]	microsomal CLint at 1 µM [1, 2]	microsomal CLint at 1 µM [1, 3]	ADRα1B ED50 (ADRα1B)	ADRβ1 ED50 (ADRβ1)	k el at 1 µM [1, 4]	metabolism in incubations without co-factor mix [1]
CC(C)NCC(O)c1ccc(O)cc1 (centres unmarked) [Isopropyloctopamine, isopropyloctopamine]	4.8 times	1.26 mg/kg bw	2.5 times	– (compounds with a dash (-) did not activate the receptors in vitro at concentrations ≤ 300 µM)	– (compounds with a dash (-) did not activate the receptors in vitro at concentrations ≤ 300 µM)	– (compounds with a dash (-) did not activate the receptors in vitro at concentrations ≤ 300 µM)	27.3 L/h	7.17e-05 s⁻¹	2.56 µL/min/mg	2.15 µL/min/mg	– (compounds with a dash (-) did not activate the receptors in vitro at concentrations ≤ 300 µM)			
CNC(C)C(O)c1ccc(O)cc1 (centres unmarked) [Methylsynephrine]		– (compounds with a dash (-) did not activate the receptors in vitro at concentrations ≤ 300 µM)		– (compounds with a dash (-) did not activate the receptors in vitro at concentrations ≤ 300 µM)	– (compounds with a dash (-) did not activate the receptors in vitro at concentrations ≤ 300 µM)	29.7 mg/kg bw	19.7 L/h		1.84 µL/min/mg	1.49 µL/min/mg	– (compounds with a dash (-) did not activate the receptors in vitro at concentrations ≤ 300 µM)	16.9 mg/kg bw	4.97e-05 s⁻¹	
NCCc1ccccc1 [Phenethylamine, phenethylamine]		67.7 mg/kg bw		– (compounds with a dash (-) did not activate the receptors in vitro at concentrations ≤ 300 µM)	– (compounds with a dash (-) did not activate the receptors in vitro at concentrations ≤ 300 µM)	– (compounds with a dash (-) did not activate the receptors in vitro at concentrations ≤ 300 µM)	2598 L/h		243 µL/min/mg	241 µL/min/mg	– (compounds with a dash (-) did not activate the receptors in vitro at concentrations ≤ 300 µM)	– (compounds with a dash (-) did not activate the receptors in vitro at concentrations ≤ 300 µM)	0.000402 s⁻¹	metabolized in incubations without co-factor mix
CC(CN)c1ccccc1 (stereo not drawn) [β-Methylphenethylamine, β-methylphenethylamine]	6.4 times	0.995 mg/kg bw and 0.955 mg/kg bw		– (compounds with a dash (-) did not activate the receptors in vitro at concentrations ≤ 300 µM)	– (compounds with a dash (-) did not activate the receptors in vitro at concentrations ≤ 300 µM)	– (compounds with a dash (-) did not activate the receptors in vitro at concentrations ≤ 300 µM)	139 L/h		13 µL/min/mg	12.1 µL/min/mg	– (compounds with a dash (-) did not activate the receptors in vitro at concentrations ≤ 300 µM)	– (compounds with a dash (-) did not activate the receptors in vitro at concentrations ≤ 300 µM)	0.000403 s⁻¹	metabolized in incubations without co-factor mix
